Measured values reported in PMC6872521, “An in silico—in vitro Pipeline Identifying an HLA-A^*02:01^+ KRAS G12V^+ Spliced Epitope Candidate for a Broad Tumor-Immune Response in Cancer Patients” (Frontiers in Immunology, 2019).

Assays:
[1] = tested on: PBMCs of pancreatic adenocarcinoma patients; settings: cited from earlier work
[2] = tested on: TAPs (transporters associated with antigen processing); test: TAP assay: competition with a fluorescent reference peptide for TAP-dependent translocation into microsomes; format: biochemical; settings: competition with fluorescent tracer peptide; microsomes from LCL721 cells; 10 mM ATP mixture; 20 min at 37°C; fluorescence read-out; signal without ATP subtracted; result in words (EC50 values only in Figure 6B)
Procedure: The transport efficiency of target peptides (Supplementary Table 2) into the ER lumen mediated by TAPs was carried out as previously described ([29]) although some modifications were introduced. These include the use of a fluorescent peptide tracer and the use of microsomes rather than Streptolysin O permeabilized cells. Briefly, peptides were dissolved in DMSO and different concentrations were distributed in a final volume of 10 μl DMSO. At the same time, a mixture of 10 mM ATP, 100 mM Tris-HCl pH7.5 and 5 mM MgCl2 and fluorescent tracer peptide was prepared. 60 μl of this mixture was added to the 10 μl competing peptide mixture to a final volume of 70 μl. This was prewarmed to 37°C and 30 μl of pre-warmed microsomes were added. Microsomes were derived from LCL721 cells, as previously described ([29]).
The mixture was incubated for 20 min at 37°C followed by cell lysis with lysis mixture (0.5% TX100, 5 mM MgCl2 in 100 mM Tris-HCl pH7.5) at 4°C. After at least 30 min incubation at 4°C, DNA was pelleted and the supernatant transferred to a new vial including ConA-beads. After at least 30 min incubation on ice, cells were washed four times with lysis mixture and the last time with 100 mM Tris-HCl pH7.5 before transfer to 96 wells plates (Corning) followed by fluorescence measurements in a plate reader. To detect background signals, a sample without competing peptide and ATP was included and fully performed as described above. This signal was subtracted from the detected signal.
To quantify the efficiency of peptide transport into the ER lumen by TAP, we measured the competition between the target peptides and a fluorescent reference peptide for TAP-dependent translocation into free microsomes.

HLA-A*02:01 complex = HLA-A*02:01 complex (Homo sapiens, UniProt P04439, D140Y/D185E/D98H/E176V/E277Q/G131W/G231S/I119V/I121R/I166T/I218V/L300P/L318F/N151K/N90K/P208A/P217A/Q86G/Q94H/R138H/R169H/T345S); test: HLA-A*02:01-peptide binding affinity measured with purified HLA-I molecules; settings: cell-free system, values only in Figure 6C
Procedure: The binding affinity between theoretical spliced and non-spliced peptides and HLA-A^*02:01 was predicted using the NetMHCPan 3.0 algorithm ([30]). […] The binding affinity between the synthetic peptides and HLA-A^*02:01 complexes was measured using purified HLA-I molecules, as described elsewhere ([10]).
Once a peptide arrives in the ER lumen, its binding affinity to the specific HLA-I molecule determines whether it will ultimately be presented. Therefore, we measured the binding affinity of the same six peptides previously tested in the TAP assay and the HLA-A^*02:01 complex in a cell-free system utilizing purified HLA-I molecules.

[3] = tested on: Transduced human CD8+ T cells; settings: TCRs isolated from humanized ABabDII mice, transduced into human PBMCs; cited from earlier work
From the text: Our pipeline identifies epitope candidates which shall further be validated by isolating specific CTL clones and their TCRs and using them to confirm that the epitope candidates are produced in cellulo and eventually in vivo. There are several strategies to this end. For example, the KRAS5−6/8−14 spliced epitope candidate here identified has been validated in collaboration with Blankenstein et al. ([56]). Specific TCRs have been isolated from humanized ABabDII mice ([57]), cloned into expressing vectors and transduced into human PBMCs.

Molecule: CC(C)C[C@H](NC(=O)[C@@H](N)CCCCN)C(=O)N[C@H](C(=O)N[C@H](C(=O)N[C@H](C(=O)NCC(=O)N[C@@H](C)C(=O)N[C@H](C(=O)NCC(=O)N[C@H](C(=O)O)C(C)C)C(C)C)C(C)C)C(C)C)C(C)C [KRAS5−14 G12V]
- Recognition by PBMCs of pancreatic adenocarcinoma patients [1]: recognized by PBMCs

Molecule: KLVVVAVGV [peptide #2]
- Transport efficiency into the ER lumen mediated by TAPs [2]: not competing with the reference peptide

Molecule: YLVVVGAVGV [peptide #1]
- Transport efficiency into the ER lumen mediated by TAPs [2]: transported by TAP as efficiently as the non-spliced epitope candidate

Molecule: [KL][VVGAVGV] [KRAS5−6/8−14 G12V]
- Binding to HLA-A*02:01 complex (result in words) (HLA-A*02:01 complex): efficiently bind
- Recognition of the epitope by TCR-transduced human CD8+ T cells [3]: selectively recognized
- Transport efficiency into the ER lumen mediated by TAPs [2]: efficiently transported by TAPs
